In patent US20070128294A1, “Treatment and prevention of liver adverse conditions using gallium” (priority 2005, published 2007):
“Also recorded” adds a separate entry of the source.

Key:
[1] = test system: human patient exposed to a liver-damaging agent; assay: Human patient pretreated before exposure to a liver-damaging agent, serum liver enzymes monitored; format: in vivo; conditions: oral tablet or capsule to at least 10 ng/mL serum gallium before exposure; monitored every 12 hours
Experimental: A human patient, prior to exposure to a liver-damaging agent, is treated with gallium in the form of gallium maltolate combined with the appropriate standard excipients and/or fillers, in tablet or capsule form. Sufficient gallium maltolate is administered to obtain at least 10 ng/mL gallium in the patient's serum. The amount of gallium maltolate plus excipients necessary to reach this level is dependent on the formulation used and the size of the patient. The patient continues to take the oral medication in an amount to build the level of serum gallium and to maintain the level of at least 10 ng/mL serum.
After a period of up to 72 hours, or when the gallium serum concentration reaches the desired level, the patient is exposed to the liver-damaging agent.
The serum levels of liver enzymes are monitored at the start of the gallium treatment and every 12 hours thereafter. In particular, levels of […] and SGOT are measured. […] Gallium maltolate administration is discontinued after risk of liver damage is terminated.

[2] = test system: Con A-treated mice (acute liver injury); assay: Concanavalin A-induced acute immune-mediated hepatitis; format: in vivo, Balb/c male mice; conditions: 150 mg/kg oral gavage for 4 days prior to Con A
Experimental: Concanavalin A (Con A) is a powerful mitogen for and activator of T lymphocytes and its intravenous administration to mice initiates an acute immune-mediated hepatitis. The effect of preemptive gallium maltolate administration on the development of acute liver injury was assessed in vivo.
Liver injury was induced by injecting 6-8 week old Balb/c male mice (weight 25 g) with Con A, 25 mg/kg in 250 μl of phosphate-buffered saline via the tail vein. The test animals were divided into three groups of 2-8 mice each: • (a) Con A treatment • (b) Vehicle (1% carboxymethyl cellulose solution in water) per oral gavage for 4 days prior to Con A treatment • (c) 150 mg/kg gallium maltolate per oral gavage for 4 days prior to Con A treatment
For determination of serum alanine aminotransferase (ALT) levels, blood was drawn from different groups of mice 16 hours after administering Con A and measured by a commercially available enzyme assay. […] (FIG. 4). Histological assessment of centrilobular necrosis of the liver was rated for severity on a scale of 0 to 3.

[3] = Serum gallium quantitation in the adjuvant arthritis study; format: in vivo, Male Lewis rats; conditions: daily oral 100 or 300 mg/kg, serum harvested one hour after final dosing
Experimental: Prophylactic treatment was initiated seven days prior to adjuvant injection by dosing with control vehicle or gallium maltolate (100 or 300 mg/kg gallium maltolate, containing 16 or 47 mg/kg gallium, respectively, in suspension with 1% carboxymethyl cellulose) seven days prior to adjuvant injection. Dosing was by daily oral gavage until termination. The dexamethasone-treated control animals were injected with a daily oral dose of dexamethasone (0.1 mg/kg). Body weights were measured regularly during the course of the study to track the effect of the drugs on the weight loss induced by the developing adjuvant disease, and dose volumes were adjusted accordingly. Prior to the onset of swelling, but after the establishment of systemic disease (about 7 days after adjuvant injection), caliper measurements were made of ankle joints. Ankles were measured every day until 14 days post-adjuvant injection when the rats were anesthetized and sacrificed. Serum was harvested one hour after final dosing for gallium quantitation. Hind paws, liver, and spleen were weighed, fixed, and processed for histopathologic evaluation. […] Splenic changes of inflammation, increased extramedullary hematopoiesis, and lymphoid atrophy were scored 0-5 using criteria similar to those used for scoring of inflammation. The primary endpoint was hepatomegaly, as determined by liver weight and histopathology.

[4] = test system: adjuvant arthritic rats (adjuvant-induced hepatomegaly); assay: Adjuvant-induced acute arthritis model: hepatomegaly, liver weight and histopathology; format: in vivo
Excerpt: A preclinical animal model was used to test the efficacy of oral gallium maltolate in treating hepatomegaly associated with adjuvant-induced acute arthritis. Male Lewis rats were used in the study. The study design was described in detail by Bendele et al. (1999) Toxicologic Pathology 27(1):134-142 and by Bendele (2001) J. Musculoskel. Neuron. Interact. 1(4):377-385.
Male Lewis rats (7 per group for gallium maltolate, 4 per group for normal controls and dexamethasone-treated controls) were injected with 100 μL of Freund's complete adjuvant/lipoidal amine (FCA/LA) subcutaneously at the base of the tail on study day 0 under anesthesia. There is a rapid onset (7 d) of arthritic symptoms in this model, including ankle inflammation, liver and spleen hypertrophy, bone resorption, and mild cartilage destruction.
Prophylactic treatment was initiated seven days prior to adjuvant injection by dosing with control vehicle or gallium maltolate (100 or 300 mg/kg gallium maltolate, containing 16 or 47 mg/kg gallium, respectively, in suspension with 1% carboxymethyl cellulose) seven days prior to adjuvant injection. Dosing was by daily oral gavage until termination. The dexamethasone-treated control animals were injected with a daily oral dose of dexamethasone (0.1 mg/kg). Body weights were measured regularly during the course of the study to track the effect of the drugs on the weight loss induced by the developing adjuvant disease, and dose volumes were adjusted accordingly. Prior to the onset of swelling, but after the establishment of systemic disease (about 7 days after adjuvant injection), caliper measurements were made of ankle joints. Ankles were measured every day until 14 days post-adjuvant injection when the rats were anesthetized and sacrificed. Serum was harvested one hour after final dosing for gallium quantitation. Hind paws, liver, and spleen were weighed, fixed, and processed for histopathologic evaluation. Adjuvant arthritic ankles were given scores of 0-5 (0=normal; 5=severe) for inflammation and bone resorption. Splenic changes of inflammation, increased extramedullary hematopoiesis, and lymphoid atrophy were scored 0-5 using criteria similar to those used for scoring of inflammation. The primary endpoint was hepatomegaly, as determined by liver weight and histopathology.

[5] = oral 100 and 300 mg/kg/day, adjuvant arthritic rats

Cc1occc(=O)c1[O-].Cc1occc(=O)c1[O-].Cc1occc(=O)c1[O-].[Ga+3] [gallium maltolate]
serum levels of liver enzymes (SDOT and SGOT) [1]: do not rise to any significant extent | serum alanine aminotransferase (ALT) levels ([2]; blood 16 hours after Con A, versus the other two test groups): greatly reduced | centrilobular necrosis of the liver, histological assessment ([2]; severity scale 0 to 3): No necrosis | serum gallium levels attained [3]: dose-dependent | lobular pattern of liver, histology (FIG. 3A) ([4]; 300 mg/kg/day oral for 21 days, 100x magnification): No accentuation of the lobular pattern | signs of toxicity ([4]; daily oral dosing for 14 days, 100 or 300 mg/kg, Lewis rats): no signs of toxicity | liver pathology, histopathological examination of the livers ([4]; gallium treated versus untreated adjuvant arthritic rats): inhibited the development of liver pathology | liver hypertrophy (adjuvant-induced hepatomegaly) [4, 5]: marked reduction; also recorded: Significant dose-dependent protection | spleen hypertrophy [4, 5]: marked reduction
